How the values were obtained:
[1] = target: Platelet-activating factor receptor (Homo sapiens, UniProt P25105); assay: biochemical; assay type: tissue-based; conditions: platelet; note: in other assays of this panel Not Active means under 50% inhibition at 10 µM
[2] = target: T1, C-X-C chemokine receptor type 2 (Homo sapiens, UniProt P25025); assay type: cell membranes, Membrane; conditions: cho-k1; note: in other assays of this panel Not Active means under 50% inhibition at 10 µM
T1 sequence (P25025 whole entry): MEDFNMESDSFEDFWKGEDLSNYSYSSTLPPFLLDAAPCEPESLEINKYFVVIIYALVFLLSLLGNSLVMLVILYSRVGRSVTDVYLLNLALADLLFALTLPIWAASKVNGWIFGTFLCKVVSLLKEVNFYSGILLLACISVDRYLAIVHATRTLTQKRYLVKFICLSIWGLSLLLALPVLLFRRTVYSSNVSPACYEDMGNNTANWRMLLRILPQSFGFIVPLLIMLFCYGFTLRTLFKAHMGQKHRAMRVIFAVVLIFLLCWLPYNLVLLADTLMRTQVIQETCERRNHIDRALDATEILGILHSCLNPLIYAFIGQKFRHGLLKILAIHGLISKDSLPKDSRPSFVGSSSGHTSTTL

[3] = DRUGMATRIX: Sigma2 radioligand binding (ligand: [3H] Ifenprodil); assay type: cell membranes, Rattus norvegicus, Wistar, Brain, Membrane; conditions: Not Active = under 50% inhibition at 10 µM
Estrogen receptor = target: T2, Estrogen receptor (Homo sapiens, UniProt P03372); conditions: sf9; note: in other assays of this panel Not Active means under 50% inhibition at 10 µM
T2 sequence (P03372 whole entry): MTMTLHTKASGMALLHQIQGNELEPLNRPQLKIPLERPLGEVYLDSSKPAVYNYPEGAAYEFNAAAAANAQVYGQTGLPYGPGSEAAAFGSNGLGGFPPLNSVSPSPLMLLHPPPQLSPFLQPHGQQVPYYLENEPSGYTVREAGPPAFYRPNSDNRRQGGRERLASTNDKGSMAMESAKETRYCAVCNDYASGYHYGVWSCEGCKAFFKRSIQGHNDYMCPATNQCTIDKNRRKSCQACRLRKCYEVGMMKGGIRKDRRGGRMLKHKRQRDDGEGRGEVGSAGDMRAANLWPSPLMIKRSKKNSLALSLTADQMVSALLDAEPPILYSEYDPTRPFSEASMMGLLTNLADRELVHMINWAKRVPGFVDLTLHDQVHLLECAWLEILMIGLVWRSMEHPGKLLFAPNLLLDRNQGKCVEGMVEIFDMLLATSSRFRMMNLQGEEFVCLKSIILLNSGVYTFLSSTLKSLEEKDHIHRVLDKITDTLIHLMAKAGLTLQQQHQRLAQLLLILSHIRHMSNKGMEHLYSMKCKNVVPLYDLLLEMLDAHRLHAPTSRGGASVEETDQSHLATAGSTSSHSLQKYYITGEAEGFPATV

Adenosine receptor A1 = target: T3, Adenosine receptor A1 (Homo sapiens, UniProt P30542); assay type: cell membranes, CHO, Membrane; conditions: cho;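 note: radioligand binding assay at the adenosine A1 receptor, with DPCPX serving as the labelled ligand; in other assays of this panel Not Active means under 50% inhibition at 10 µM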
T3 sequence (P30542 whole entry): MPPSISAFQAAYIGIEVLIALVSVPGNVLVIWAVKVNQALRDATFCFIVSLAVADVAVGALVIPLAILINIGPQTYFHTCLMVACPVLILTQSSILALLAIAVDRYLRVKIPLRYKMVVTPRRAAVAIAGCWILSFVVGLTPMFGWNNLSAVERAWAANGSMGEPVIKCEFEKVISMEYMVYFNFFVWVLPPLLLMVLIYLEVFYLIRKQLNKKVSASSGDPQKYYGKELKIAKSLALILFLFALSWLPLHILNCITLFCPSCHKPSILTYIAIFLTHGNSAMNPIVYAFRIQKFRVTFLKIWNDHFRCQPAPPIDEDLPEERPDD

[4] = target: T4, Neuropeptide Y receptor type 2 (Homo sapiens, UniProt P49146); assay type: cell membranes, Membrane; conditions: kan-ts; note: in other assays of this panel Not Active means under 50% inhibition at 10 µM
T4 sequence (P49146 whole entry): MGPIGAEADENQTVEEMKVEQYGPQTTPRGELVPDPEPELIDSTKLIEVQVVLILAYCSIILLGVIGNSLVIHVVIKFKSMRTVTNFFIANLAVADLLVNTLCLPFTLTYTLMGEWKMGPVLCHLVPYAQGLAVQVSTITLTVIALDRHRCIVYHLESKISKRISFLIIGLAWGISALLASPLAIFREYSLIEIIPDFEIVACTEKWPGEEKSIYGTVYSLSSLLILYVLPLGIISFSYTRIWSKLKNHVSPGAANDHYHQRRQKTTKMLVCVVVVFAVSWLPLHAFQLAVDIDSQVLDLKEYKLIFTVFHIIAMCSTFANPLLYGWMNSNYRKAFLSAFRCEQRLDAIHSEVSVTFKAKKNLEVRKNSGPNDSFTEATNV

Chain of Platelet-activating factor receptor (P25105 whole entry): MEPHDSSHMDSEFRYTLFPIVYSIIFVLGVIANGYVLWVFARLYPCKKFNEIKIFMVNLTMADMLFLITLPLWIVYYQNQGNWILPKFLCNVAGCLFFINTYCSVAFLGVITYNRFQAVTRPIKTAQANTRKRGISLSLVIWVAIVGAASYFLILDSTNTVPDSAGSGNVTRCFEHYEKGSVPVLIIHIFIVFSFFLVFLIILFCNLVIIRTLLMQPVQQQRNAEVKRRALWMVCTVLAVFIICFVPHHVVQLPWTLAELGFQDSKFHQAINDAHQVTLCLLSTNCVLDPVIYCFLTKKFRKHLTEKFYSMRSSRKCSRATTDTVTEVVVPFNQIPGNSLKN

Row | SMILES | IC50 [1] | IC50 [2] | IC50 [3] | Ki [3] | IC50 (Estrogen receptor) | IC50 (Adenosine receptor A1) | IC50 [4] | IC50 ([3]; read-out: IC50) [µM] | Ki ([3]; read-out: Ki) [µM]
1 | CCCCCC[C@H]1C(=O)O[C@H](C)[C@H](NC(=O)c2cccc(NC=O)c2O)C(=O)O[C@@H](C)[C@@H]1OC(=O)CC(C)C [ANTIMYCIN A] | Not Active | Not Active | Not Active | Not Active | Not Active | Not Active | Not Active |  | 
2 | CO[C@H]1[C@@H](O)[C@H](N)[C@@H](O[C@H]2O[C@H]([C@H](C)N)CC[C@H]2N)[C@H](O)[C@@H]1N(C)C(=O)CN [ASTROMICIN] | Not Active | Not Active | Not Active | Not Active | Not Active | Not Active | Not Active |  | 
3 | CC[C@H]1OC(=O)[C@H](C)[C@@H](O[C@H]2C[C@@](C)(OC)[C@@H](O)[C@H](C)O2)[C@H](C)[C@@H](O[C@@H]2O[C@H](C)C[C@H](N(C)C)[C@H]2O)[C@](C)(O)C[C@@H](C)CN(C)[C@H](C)[C@@H](O)[C@]1(C)O [AZITHROMYCIN] | Not Active | Not Active | Not Active | Not Active | Not Active | Not Active | Not Active |  | 
4 | CC(C)(C)c1ccc(S(=O)(=O)/C=C/C#N)cc1 [BAY-11-7085] | Not Active | Not Active | Not Active | Not Active | Not Active | Not Active | Not Active |  | 
5 | CCc1oc2ccccc2c1C(=O)c1cc(Br)c(O)c(Br)c1 [BENZBROMARONE] | Not Active | Not Active | Not Active | Not Active | Not Active | Not Active | Not Active |  | 
6 | O=c1cc(-c2ccccc2)oc2ccc3ccccc3c12 [BETA-NAPHTHOFLAVONE] | Not Active | Not Active | Not Active | Not Active | Not Active | Not Active | Not Active |  | 
7 | CS(=O)(=O)OCCCCOS(C)(=O)=O [BUSULFAN] | Not Active | Not Active | Not Active | Not Active | Not Active | Not Active | Not Active |  | 
8 | COc1cc(CNC(=O)CCCC/C=C/C(C)C)ccc1O [CAPSAICIN] | Not Active | Not Active | Not Active | Not Active | Not Active | Not Active | Not Active |  | 
9 | NC(=O)N1c2ccccc2C=Cc2ccccc21 [CARBAMAZEPINE] | Not Active | Not Active | Not Active | Not Active | Not Active | Not Active | Not Active |  | 
10 | CCOC(=O)n1ccn(C)c1=S [CARBIMAZOLE] | Not Active | Not Active | Not Active | Not Active | Not Active | Not Active | Not Active |  | 
11 | CO[C@@]1(NC(=O)CSCC#N)C(=O)N2C(C(=O)O)=C(CSc3nnnn3C)CS[C@@H]21 [CEFMETAZOLE] | Not Active | Not Active | Not Active | Not Active | Not Active | Not Active | Not Active |  | 
12 | CC(C)(Oc1ccc(C2CC2(Cl)Cl)cc1)C(=O)O (stereo not given) [CIPROFIBRATE] | Not Active | Not Active | Not Active | Not Active | Not Active | Not Active | Not Active |  | 
13 | CC[C@H]1OC(=O)[C@H](C)[C@@H](O[C@H]2C[C@@](C)(OC)[C@@H](O)[C@H](C)O2)[C@H](C)[C@@H](O[C@@H]2O[C@H](C)C[C@H](N(C)C)[C@H]2O)[C@](C)(OC)C[C@@H](C)C(=O)[C@H](C)[C@@H](O)[C@]1(C)O [CLARITHROMYCIN] | Not Active | Not Active | Not Active | Not Active | Not Active | Not Active | Not Active |  | 
14 | CCC[C@@H]1C[C@@H](C(=O)N[C@@H]([C@H]2O[C@H](SC)[C@H](O)[C@@H](O)[C@H]2O)[C@H](C)Cl)N(C)C1 [CLINDAMYCIN] | Not Active | Not Active | Not Active | Not Active | Not Active | Not Active | Not Active |  | 
15 | O=C(O)c1cc(=O)c2c(OCC(O)COc3cccc4oc(C(=O)O)cc(=O)c34)cccc2o1 [CROMOLYN] | Not Active | Not Active | Not Active | Not Active | Not Active | Not Active | Not Active |  | 
16 | O=P1(N(CCCl)CCCl)NCCCO1 (stereo not given) [CYCLOPHOSPHAMIDE ANHYDROUS] | Not Active | Not Active | Not Active | Not Active | Not Active | Not Active | Not Active |  | 
17 | CCN[C@@H](C)Cc1cccc(C(F)(F)F)c1 [DEXFENFLURAMINE] | Not Active | Not Active | Not Active | Not Active | Not Active | Not Active | Not Active |  | 
18 | C[C@H](C(=O)O)c1cccc(C(=O)c2ccccc2)c1 [DEXKETOPROFEN] | Not Active | Not Active | Not Active | Not Active | Not Active | Not Active | Not Active |  | 
19 | CN1C[C@H](C(=O)N[C@]2(C)O[C@@]3(O)[C@@H]4CCCN4C(=O)[C@H](Cc4ccccc4)N3C2=O)C[C@@H]2c3cccc4[nH]cc(c34)C[C@H]21 [DIHYDROERGOTAMINE] | Not Active | Not Active | Not Active | Not Active | Not Active | Not Active | Not Active |  | 
20 | CC(CCc1ccc(O)cc1)NCCc1ccc(O)c(O)c1 (stereo not given) [DOBUTAMINE] | Not Active | Not Active |  |  | Not Active | Not Active | Not Active | 2.6 | 1.6
21 | CCn1cc(C(=O)O)c(=O)c2cc(F)c(N3CCNCC3)nc21 [ENOXACIN] | Not Active | Not Active | Not Active | Not Active | Not Active | Not Active | Not Active |  | 
22 | CCC(=O)O[C@H]1[C@H](O[C@@H]2[C@@H](C)[C@H](O[C@H]3C[C@@](C)(OC)[C@@H](O)[C@H](C)O3)[C@@H](C)C(=O)O[C@H](CC)[C@@](C)(O)[C@H](O)[C@@H](C)C(=O)[C@H](C)C[C@@]2(C)O)O[C@H](C)C[C@@H]1N(C)C [ERYTHROMYCIN PROPIONATE] | Not Active | Not Active | Not Active | Not Active | Not Active | Not Active | Not Active |  | 
23 | C=C(CC)C(=O)c1ccc(OCC(=O)O)c(Cl)c1Cl [ETHACRYNIC ACID] | Not Active | Not Active | Not Active | Not Active | Not Active | Not Active | Not Active |  | 
24 | OCCO [ETHYLENE GLYCOL] | Not Active | Not Active | Not Active | Not Active | Not Active | Not Active | Not Active |  | 
25 | CC(=O)OCC(CCn1cnc2cnc(N)nc21)COC(C)=O [FAMCICLOVIR] | Not Active | Not Active | Not Active | Not Active | Not Active | Not Active | Not Active |  | 

— ChEMBL document CHEMBL1909046, “DrugMatrix in vitro pharmacology data”
